Assay results from US20170007608A1, “ACTIVATORS OF PYRUVATE KINASE M2 AND METHODS OF TREATING DISEASE” (AGIOS PHARMACEUTICALS, INC, priority 2011, published 2017).

These molecules were tested on A549 cells (assay: Growth inhibition (GI50) side-by-side in regular RPMI versus BME medium). Conditions: A549 cells treated for 72 hours.
Format: cell-based
Protocol: FIGS. 9A-9F are graphs depicting the effect of various cytotoxic agents on A549 cell growth in BME.
Cells grown in BME media are not generally more sensitive to cytotoxic agents (FIGS. 9A-9F). A549 cells were grown in RPMI (FIG. 9A, 9B or 9C) or in BME (FIGS. 9D, 9E, and 9F). […] The effect of the PKM2 activators appears to by cytostatic (no induction of apoptosis).

Compound	potency of cytotoxic agent in BME compared with RPMI
CC(=O)O[C@@]12CO[C@@H]1C[C@H](O)[C@@]1(C)C(=O)[C@H](O)C3=C(C)[C@@H](OC(=O)[C@H](O)[C@@H](NC(=O)OC(C)(C)C)c4ccccc4)C[C@@](O)([C@@H](OC(=O)c4ccccc4)[C@H]21)C3(C)C [docetaxel]	decreased potency
COc1cccc2c1C(=O)c1c(O)c3c(c(O)c1C2=O)C[C@@](O)(C(=O)CO)C[C@@H]3O[C@H]1C[C@H](N)[C@H](O)[C@H](C)O1 [doxorubicin]	decreased potency
CC[C@]1(O)C[C@@H]2CN(CCc3c([nH]c4ccccc34)[C@@](C(=O)OC)(c3cc4c(cc3OC)N(C)[C@H]3[C@@](O)(C(=O)OC)[C@H](OC(C)=O)[C@]5(CC)C=CCN6CC[C@]43[C@@H]65)C2)C1 [vinblastine]	decreased potency

Each molecule was assayed against PKM2 (Homo sapiens, UniProt P14618) (assay: PKM2 Assay Procedure (LDH/NADH-coupled, absorbance at 340 nm)). Conditions: Table 1; PKM2 activation.
Chain of PKM2 (P14618 whole entry): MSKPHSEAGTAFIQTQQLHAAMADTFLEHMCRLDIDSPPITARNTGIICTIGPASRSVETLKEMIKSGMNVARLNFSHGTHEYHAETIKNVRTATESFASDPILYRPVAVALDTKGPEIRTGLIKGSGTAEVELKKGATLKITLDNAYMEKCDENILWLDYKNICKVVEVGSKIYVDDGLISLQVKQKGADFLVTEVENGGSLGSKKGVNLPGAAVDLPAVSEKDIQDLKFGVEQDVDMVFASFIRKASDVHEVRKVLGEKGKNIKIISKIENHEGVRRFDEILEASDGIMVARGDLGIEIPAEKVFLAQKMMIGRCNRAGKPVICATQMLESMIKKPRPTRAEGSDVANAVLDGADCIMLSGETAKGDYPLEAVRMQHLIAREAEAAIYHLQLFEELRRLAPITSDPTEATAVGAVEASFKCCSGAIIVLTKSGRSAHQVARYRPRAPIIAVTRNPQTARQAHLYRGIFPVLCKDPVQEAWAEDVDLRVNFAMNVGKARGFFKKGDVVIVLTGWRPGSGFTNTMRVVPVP
Format: biochemical
Protocol: B refers to an activator of PKM2 with an AC50 between 100 nM and 500 nM. C refers to an activator of PKM2 with an AC50 greater than 500 nM. AC50s described here in Tables 1 and 2 and FIGS. 1 and 2A-2D are measured according to the “PKM2 Assay Procedure” below.
• PKM2 stock enzyme solution was diluted in Reaction Buffer • 2 μL of compound was added into each well first, and then 180 μL of the Reaction Mix was added. • Reaction mixture with compound (without ADP) were incubated for 30 minutes at 4° C. • Plates were re-equilibrated to room temperature prior to adding 20 μL ADP to initiate the reaction. • Reaction progress was measured as changes in absorbance at 340 nm wavelength at room temperature (25° C.)

Compound	AC50 [nM]
O=S(=O)(c1ccc2c(c1)OCCO2)N1CCN(S(=O)(=O)c2c(F)cccc2F)CC1	< 100
Cc1cc2c(s1)c1cnn(Cc3ccccc3F)c(=O)c1n2C	< 100
Cc1cc(C)cc(NS(=O)(=O)c2cccn2-c2ncc(C(F)(F)F)cc2Cl)c1	< 100
O=S(=O)(Nc1ccc(Cl)cc1)c1cccn1-c1ncc(C(F)(F)F)cc1Cl	< 100
O=S(=O)(Nc1ccccc1C(F)(F)F)c1cccn1-c1ncc(C(F)(F)F)cc1Cl	> 500
Cc1cc(C)cc(NS(=O)(=O)c2ccc3c(c2)oc(=O)n3C)c1	< 100
O=S(=O)(Nc1ccc2c(c1)OCCO2)c1cncn1-c1ccc(C(F)(F)F)cn1	> 500
O=S(=O)(Nc1ccc(F)cc1)c1cncn1-c1ccc(C(F)(F)F)cn1	> 500
Cc1cc(C)cc(NS(=O)(=O)c2cncn2-c2ncc(C(F)(F)F)cc2Cl)c1	< 100
Cc1cc2oc(=O)n(C)c2cc1S(=O)(=O)Nc1cccc(Cl)c1	100 to 500
Cc1cc2oc(=O)n(C)c2cc1S(=O)(=O)Nc1ccc(F)c(Cl)c1	< 100
Cc1cc2oc(=O)n(C)c2cc1S(=O)(=O)Nc1cc(F)cc(Cl)c1	> 500
Cn1c(=O)oc2cc(S(=O)(=O)Nc3cccc(Cl)c3)ccc21	< 100
O=S(=O)(Nc1ccc2c(c1)OCO2)c1cccn1-c1ncc(C(F)(F)F)cc1Cl	< 100
Cc1cc(C)cc(NS(=O)(=O)c2ccnn2-c2ncc(C(F)(F)F)cc2Cl)c1	< 100
Cc1cc(C)cc(NS(=O)(=O)c2cccn2-c2ncccn2)c1	< 100
Cc1cccc(NS(=O)(=O)c2cncn2-c2ncc(C(F)(F)F)cc2Cl)c1	< 100
O=S(=O)(Nc1cc(F)cc(F)c1)c1cccn1-c1ncc(C(F)(F)F)cc1Cl	> 500
Cc1cc(NS(=O)(=O)c2cccn2-c2ncc(C(F)(F)F)cc2Cl)ccc1F	< 100
O=S(=O)(Nc1ccc(F)c(Cl)c1)c1cncn1-c1cnccn1	< 100
O=S(=O)(Nc1ccc(Cl)cc1)c1cncn1-c1cnccn1	> 500
Cc1cc(NS(=O)(=O)c2cnn(-c3cnccn3)c2)ccc1F	100 to 500
Nc1cccc(S(=O)(=O)N2CCCN(S(=O)(=O)c3cccc4c3OCCO4)CC2)c1	< 100

Next, values leading:

AC50 [nM]	Compound
100 to 500	O=C(COc1ccc(-n2cnnn2)cc1)N1CCN(S(=O)(=O)c2ccc3ccccc3c2)CC1
> 500	COc1ccccc1N1CCN(C(=O)c2ccc(NS(=O)(=O)c3ccc4ccccc4c3)cc2)CC1
< 100	COc1ccccc1N1CCN(C(=O)c2ccc(NS(=O)(=O)c3cccc4cccnc34)cc2)CC1
> 500	O=C(c1ccc(NS(=O)(=O)c2ccc(Cl)cc2)cc1)N1CCN(c2ncccn2)CC1
100 to 500	O=C(c1ccc(NS(=O)(=O)c2cccc3cccnc23)cc1)N1CCN(c2ncccn2)CC1
< 100	O=C(c1ccc(NS(=O)(=O)c2cccc3cccnc23)cc1)N1CCN(c2ccccc2)CC1
< 100	COc1ccccc1N1CCN(C(=O)c2ccc(NS(=O)(=O)c3cccc4cccnc34)nc2)CC1
100 to 500	COc1ccccc1N1CCN(C(=O)c2ccc(NS(=O)(=O)c3ccc4c(c3)OCCO4)cc2)CC1
> 500	COc1ccccc1N1CCCN(C(=O)c2ccc(NS(=O)(=O)c3cccc4cccnc34)cc2)CC1
< 100	COc1ccccc1N1CCN(C(=O)c2ccc(N(C)S(=O)(=O)c3cccc4cccnc34)cc2)CC1
> 500	COc1ccccc1N1CCN(C(=O)c2ccc(NS(=O)(=O)c3ccc(Cl)c4nonc34)cc2)CC1
< 100	O=C(c1ccc(NS(=O)(=O)c2cccc3cccnc23)cc1)N1CCN(Cc2ccccc2)CC1
< 100	O=C(c1ccc(NS(=O)(=O)c2cccc3cccnc23)cc1)N1CCN(Cc2ccccn2)CC1
< 100	COc1cccc(CN2CCN(C(=O)c3ccc(NS(=O)(=O)c4cccc5cccnc45)cc3)CC2)c1
< 100	O=C(c1ccc(NS(=O)(=O)c2cccc3cccnc23)cc1)N1CCN(Cc2cccc(Cl)c2)CC1
< 100	O=C(c1ccc(NS(=O)(=O)c2cccc3cccnc23)cc1)N1CCN(Cc2ccc(Br)cc2)CC1
< 100	O=C(c1ccc(NS(=O)(=O)c2cccc3cccnc23)cc1)N1CCN(Cc2ccc(F)cc2)CC1
< 100	N#Cc1ccc(CN2CCN(C(=O)c3ccc(NS(=O)(=O)c4cccc5cccnc45)cc3)CC2)cc1
100 to 500	CC(=O)c1ccc(CN2CCN(C(=O)c3ccc(NS(=O)(=O)c4cccc5cccnc45)cc3)CC2)cc1
< 100	N#Cc1ccccc1CN1CCN(C(=O)c2ccc(NS(=O)(=O)c3cccc4cccnc34)cc2)CC1
< 100	O=C(c1ccc(NS(=O)(=O)c2cccc3cccnc23)cc1)N1CCN(Cc2ccc(Cl)cc2)CC1
< 100	N#Cc1cccc(CN2CCN(C(=O)c3ccc(NS(=O)(=O)c4cccc5cccnc45)cc3)CC2)c1
< 100	CC(=O)c1ccccc1CN1CCN(C(=O)c2ccc(NS(=O)(=O)c3cccc4cccnc34)cc2)CC1
< 100	O=C(c1ccc(NS(=O)(=O)c2cccc3cccnc23)cc1)N1CCN(Cc2ccccc2Cl)CC1
< 100	O=C(c1ccc(NS(=O)(=O)c2cccc3cccnc23)cc1)N1CCN(Cc2ccc(Cl)nc2)CC1
< 100	O=C(c1ccc(NS(=O)(=O)c2cccc3cccnc23)cc1)N1CCN(Cc2cccnc2Cl)CC1
< 100	COc1ccccc1CN1CCN(C(=O)c2ccc(NS(=O)(=O)c3cccc4cccnc34)cc2)CC1

Same assay, conditions: Table 2; PKM2 activation

AC50 [nM]	Compound
1000 to 10000	COc1ccc(Cl)cc1S(=O)(=O)Nc1ccc2sc(=O)n(C)c2c1
10000 to 50000	Cn1c(=O)oc2cc(NS(=O)(=O)c3cccs3)ccc21
1000 to 10000	Cc1ccc(OCC(=O)N2CCN(S(=O)(=O)c3cc4oc(=O)n(C)c4cc3C)CC2)cc1
> 100000	COc1ccc(Cl)cc1S(=O)(=O)Nc1ccc2oc(=O)n(C)c2c1 [drawing 74]
< 1000	COc1ccc(Cl)cc1S(=O)(=O)Nc1ccc2oc(=O)n(C)c2c1 [drawing 91]
